Assay [1] has as its target T1, catalytic domain of phosphodiesterase 4B enzyme cloned from human brain (Homo sapiens, UniProt Q07343).
T1 construct: the catalytic domain of phosphodiesterase 4B enzyme; purchased Scottish Biomedical
The experiment in a line: PDE4 inhibition assay (PDELight). The format is biochemical. The note with it: for IC50: 5 uM cAMP, read-out: PDE 4 Inhibition (IC50 in μM). The method, boiled down: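 Human PDE4B catalytic domain (40 mU/well) incubated with 5 uM cAMP. AMP formed was converted to ATP and measured by luciferase luminescence (PDELight). IC50 derived by nonlinear regression curve fit.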

In assay [2] the target is T2, recombinant full length human JNK2 enzyme (Homo sapiens, UniProt P45984).
T2 construct: recombinant full length human JNK2 or JNK3 enzyme; purchased Upstate; host or cells: Sf21 cells
T2 sequence (P45984 whole entry): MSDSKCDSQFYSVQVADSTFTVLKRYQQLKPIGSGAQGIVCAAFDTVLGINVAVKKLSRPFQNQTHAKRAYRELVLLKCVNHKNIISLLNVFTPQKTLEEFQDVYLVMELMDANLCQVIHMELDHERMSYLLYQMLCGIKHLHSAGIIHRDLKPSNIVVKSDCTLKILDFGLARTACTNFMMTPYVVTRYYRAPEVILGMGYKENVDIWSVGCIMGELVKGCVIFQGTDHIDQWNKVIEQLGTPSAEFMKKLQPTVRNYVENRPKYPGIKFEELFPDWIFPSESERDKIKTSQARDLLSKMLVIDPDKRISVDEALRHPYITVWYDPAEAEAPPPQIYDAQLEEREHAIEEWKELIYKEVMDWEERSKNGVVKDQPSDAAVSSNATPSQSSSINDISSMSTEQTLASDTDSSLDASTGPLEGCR
The experiment in a line: JNK 2 inhibition assay (ATP depletion, luciferase). The format is biochemical. How it is done:
In a 96-well plate, recombinant full length human JNK2 or JNK3 enzyme (40 ng) expressed in Sf21 cells (Upstate) was incubated with the substrate ATF2 (3 uM) for 1 hour in the presence of 10 uM ATP. […] IC50 calculations were plotted using a nonlinear regression curve fit.

The test system of assay [3] is rat chronic constriction injury (CCI) model of neuropathic pain. The assay is described as follows: Rat chronic constriction injury (CCI) model of neuropathic pain. Format: in vivo. The note with it: for IP CCI efficacy (Change in grams): dose not given, 50% paw withdrawal threshold, von Frey.
Assay [4] concerns the target T3, recombinant full length human JNK3 enzyme (Homo sapiens, UniProt P53779).
T3 construct: recombinant full length human JNK2 or JNK3 enzyme; purchased Upstate; host or cells: Sf21 cells
The experiment in a line: JNK 3 inhibition assay (ATP depletion, luciferase). Format: biochemical. The note with it: for IC50: 10 uM ATP, ATF2 substrate; for JNK-3 inhibition (in words): see Table 2. How it is done:
In a 96-well plate, recombinant full length human JNK2 or JNK3 enzyme (40 ng) expressed in Sf21 cells (Upstate) was incubated with the substrate ATF2 (3 uM) for 1 hour in the presence of 10 uM ATP. […] The ATP levels were quantified using luciferase with luminescence read on a Victor Light 1420 luminometer. IC50 calculations were plotted using a nonlinear regression curve fit.

Assay [5] deals with Mouse BV-2 microglial cells. The experiment in a line: BV-2 glial cell assay (TNF-α and MCP-1 by Luminex). Format: cell-based. The note with it: for EC50: Mus musculus, BV-2, LPS and IFN-γ activated, 20 hours; for inhibiting glial cell activation (TNF-α and/or MCP-1): Table 3. How it is done: Mouse BV-2 microglial cells were seeded on 96-well plates at a concentration of 3×10^4 cells/well. Cells were activated with 100 ng/mL LPS and IFN-γ (100 ng/mL) in the presence or absence of test compounds (0-30 uM). Following incubation for 20 hours, cells were spun down and supernatant collected. The supernatant was analyzed via Luminex for the presence of TNF-α and MCP-1.

The subject of assay [6] is phosphorylated c-Jun (serine-73). The experiment in a line: Phosphorylated c-JUN (6-OHDA), SH-SY5Y. Format: cell-based. The note with it: Homo sapiens, 50 uM 6-hydroxydopamine, 1.5 hours, read-out: p-cJun 6-OHDA SH-SY5Y (EC50 in μM). The essentials: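 SH-SY5Y cells challenged with 50 uM 6-hydroxydopamine with or without compound (0-30 uM) for 1.5 hours, then paraformaldehyde-fixed. Phospho-c-Jun (Ser73) quantified by cell-based ELISA.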

The target of assay [7] is T4, recombinant human phosphodiesterase 10A1 enzyme (Homo sapiens, UniProt Q9Y233).
T4 construct: purchased BPS Biosciences; host or cells: Baculovirus infected Sf9 cells
T4 sequence (Q9Y233 1-779 isoform Q9Y233-1): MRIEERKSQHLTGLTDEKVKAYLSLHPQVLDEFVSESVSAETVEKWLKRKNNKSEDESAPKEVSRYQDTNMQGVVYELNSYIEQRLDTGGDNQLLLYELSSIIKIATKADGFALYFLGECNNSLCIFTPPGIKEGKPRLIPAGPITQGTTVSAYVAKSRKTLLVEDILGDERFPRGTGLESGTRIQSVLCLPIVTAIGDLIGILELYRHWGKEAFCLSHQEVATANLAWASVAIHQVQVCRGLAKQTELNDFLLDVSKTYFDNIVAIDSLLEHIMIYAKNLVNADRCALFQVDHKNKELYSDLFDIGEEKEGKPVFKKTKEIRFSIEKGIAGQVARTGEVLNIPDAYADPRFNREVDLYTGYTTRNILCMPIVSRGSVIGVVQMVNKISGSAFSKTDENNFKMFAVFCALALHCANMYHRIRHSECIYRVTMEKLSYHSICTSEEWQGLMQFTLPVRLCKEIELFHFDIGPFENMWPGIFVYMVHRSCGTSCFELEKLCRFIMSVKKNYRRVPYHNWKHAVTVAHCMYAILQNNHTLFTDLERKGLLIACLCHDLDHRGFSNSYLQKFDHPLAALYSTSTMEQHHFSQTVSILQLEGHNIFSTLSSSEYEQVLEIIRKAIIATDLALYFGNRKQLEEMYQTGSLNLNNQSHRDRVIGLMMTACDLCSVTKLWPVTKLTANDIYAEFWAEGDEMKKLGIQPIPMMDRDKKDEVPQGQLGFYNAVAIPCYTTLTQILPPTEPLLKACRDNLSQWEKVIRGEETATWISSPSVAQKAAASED
The assay is described as follows: PDE10 inhibition assay (PDELight). The format is biochemical. The note with it: for IC50: 1 uM cAMP, read-out: PDE 10 Inhibition (IC50 in μM); for PDE-10 inhibition (in words): Table 2.

[8] abbreviates: 10 uM ATP, ATF2 substrate, read-out: JNK 2 Inhibition (IC50 in μM).
Where [9] appears, read: read-out: MCP-1 BV-2 (EC50 in μM).
The mark [10] stands for this setting: read-out: TNF-a BV-2 (EC50 in μM).
[11] abbreviates: read-out: IC50 value based upon a JNK 2 inhibition assay (range given).

Where two headings read alike, the source gives them in different places.

T1 sequence (Q07343 330-659 limits assumed): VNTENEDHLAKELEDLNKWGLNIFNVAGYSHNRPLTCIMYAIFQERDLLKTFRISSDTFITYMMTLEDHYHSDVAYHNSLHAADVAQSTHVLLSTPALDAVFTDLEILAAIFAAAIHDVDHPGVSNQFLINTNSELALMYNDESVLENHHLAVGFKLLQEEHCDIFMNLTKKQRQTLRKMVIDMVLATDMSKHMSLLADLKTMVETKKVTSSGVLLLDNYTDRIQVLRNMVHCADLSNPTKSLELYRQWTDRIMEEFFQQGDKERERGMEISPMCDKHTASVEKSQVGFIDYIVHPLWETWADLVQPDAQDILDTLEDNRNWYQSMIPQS
T3 sequence (P53779 whole entry): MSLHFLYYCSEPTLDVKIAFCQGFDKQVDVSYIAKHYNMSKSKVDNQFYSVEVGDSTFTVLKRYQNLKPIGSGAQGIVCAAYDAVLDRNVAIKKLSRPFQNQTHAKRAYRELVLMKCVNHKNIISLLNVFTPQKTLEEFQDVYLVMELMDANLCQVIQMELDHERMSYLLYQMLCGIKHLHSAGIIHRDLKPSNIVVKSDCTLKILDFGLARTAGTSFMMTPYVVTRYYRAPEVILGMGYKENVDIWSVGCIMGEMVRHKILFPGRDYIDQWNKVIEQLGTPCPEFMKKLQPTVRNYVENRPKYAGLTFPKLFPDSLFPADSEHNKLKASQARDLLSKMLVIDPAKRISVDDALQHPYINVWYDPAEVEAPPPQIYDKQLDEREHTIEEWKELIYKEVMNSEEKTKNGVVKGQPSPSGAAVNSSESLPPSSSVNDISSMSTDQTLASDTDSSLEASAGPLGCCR

Take `CC(C)Nc1nccc(-c2c(C(C)C)nn3ccccc23)n1` [AV1137, N-isopropyl-4-(2-isopropylpyrazolo[1,5-a]pyridin-3-yl)pyrimidin-2-amine]: the “PDE-4 inhibition (in words)” value in assay [1] is listed as “particularly effective”. The IC50 in assay [1] is 4.3 µM; in assay [2] (setting [8]) it was 1.6 µM; in assay [4] it was 2.6 µM; in assay [7] it was 9.9 µM. Further, in assay [3], the “IP CCI efficacy (Change in grams)” value worked out at 3.26 grams. Besides, the “PO CCI efficacy (Change in grams)” value in assay [3] (75 mg/kg) is listed as 0.94 (75 mg/kg) grams. Moreover, the EC50 in assay [5] (setting [9]) was determined as 1.1 µM; in assay [5] (setting [10]) it was 1.2 µM; in assay [6] it was 6.1 µM. Besides, in assay [5], the “inhibiting glial cell activation (TNF-α and/or MCP-1)” value (“inhibiting glial cell activation” below) is “Particularly effective”. Also, the “PDE-10 inhibition (in words)” value in assay [7] is “particularly effective”.

For the compound `CC(C)Nc1nccc(-c2cnn3ccccc23)n1` [AV1164, N-isopropyl-4-(pyrazolo[1,5-a]pyridin-3-yl)pyrimidin-2-amine], in assay [1], the “PDE-4 inhibition (in words)” value is listed as “particularly effective”. The IC50 in assay [1] is 5.9 µM; in assay [2] (setting [8]), 0.5 µM; in assay [2] (setting [11]) it was 0.01 to 2 µM; in assay [4], 0.3 µM; in assay [7], 5.8 µM. Moreover, the “IP CCI efficacy (Change in grams)” value in assay [3] came out at 1.56 grams. In assay [4], the “JNK-3 inhibition (in words)” value was “particularly effective”. The EC50 was determined as 4.9 µM in assay [5] (setting [9]), 0.4 µM in assay [5] (setting [10]) and 3.1 µM in assay [6]. Further, in assay [5], the “inhibiting glial cell activation” value is “Particularly effective”. For the same compound, in assay [7], the “PDE-10 inhibition (in words)” value is reported as “particularly effective”.

Regarding `c1ccn2ncc(-c3ccnc(NC4CCCC4)n3)c2c1` [AV1165, N-cyclopentyl-4-(pyrazolo[1,5-a]pyridin-3-yl)pyrimidin-2-amine], the IC50 in assay [1] was 14 µM; in assay [2] (setting [8]), 0.4 µM; in assay [2] (setting [11]), 0.01 to 2 µM; in assay [4] it was 0.2 µM; in assay [7], 7.5 µM. In addition, the “IP CCI efficacy (Change in grams)” value in assay [3] turned out to be 0.44 grams. Further, in assay [4], the “JNK-3 inhibition (in words)” value is listed as “particularly effective”. The EC50 in assay [5] (setting [9]) was found to be 0.6 µM; in assay [5] (setting [10]), 0.2 µM; in assay [6] it was 1.1 µM. Moreover, the “inhibiting glial cell activation” value in assay [5] was “Particularly effective”. Further, in assay [7], the “PDE-10 inhibition (in words)” value is listed as “particularly effective”.

With `CC(C)Nc1nccc(-c2c(C3CC3)nn3ccccc23)n1` [AV1173, 4-(2-cyclopropylpyrazolo[1,5-a]pyridin-3-yl)-N-isopropylpyrimidin-2-amine], the “PDE-4 inhibition (in words)” value in assay [1] is “particularly effective”. In addition, the IC50 in assay [1] was 1.1 µM; in assay [2] (setting [8]) it was 0.3 µM; in assay [2] (setting [11]) it was 0.01 to 2 µM; in assay [4], 1.2 µM; in assay [7] it was 7.4 µM. Moreover, in assay [3], the “IP CCI efficacy (Change in grams)” value was determined as 2.5 grams. In assay [3] (30 mg/kg), the “PO CCI efficacy (Change in grams)” value was 1.6 (30 mg/kg) grams. Besides, the reversal of allodynia entry in assay [3] (oral dosing, multi-day, 24 hr time-points, FIG. 6) was “capable of reversing allodynia and sustaining the efficacy overnight”. In assay [4], the “JNK-3 inhibition (in words)” value is recorded as “particularly effective”. Also, the results for the EC50 in assay [5] (setting [9]), in assay [5] (setting [10]) and in assay [6] were 0.7 µM, 1.4 µM and 7.7 µM, respectively. For the same compound, the “inhibiting glial cell activation” value in assay [5] was “Particularly effective”. Also, the “PDE-10 inhibition (in words)” value in assay [7] is listed as “particularly effective”.

The term IC50 denotes the concentration that gives 50% inhibition. One may read the EC50 as the concentration that produces a half-maximal response.

For the origin of these results see patent publication US20110039873A1, “SUBSTITUTED PYRAZOLO[1,5-a] PYRIDINE COMPOUNDS HAVING MULTI-TARGET ACTIVITY” (priority 2009, published 2011).
